Each structure is given as a SMILES string. pIC50: −log10 of the molar value. Active and inactive are the calls of the source. No cut-off for these calls is given here.

As usually defined, the pIC50 is the IC50 on a negative log10 scale, so that one unit is a factor of ten. Low readings indicate a large IC50, high ones a small IC50.

Assay [1] addresses Histone deacetylase 9 (Homo sapiens) (UniProt Q9UKV0). Kind of assay: Inhibition of HDAC9 (unknown origin) assessed as residual activity at 4.57 x 10^-9M (reference value: 97.55%). The settings on record: dose 4.57 10^-9M.
For assay [2], the target named is Histone deacetylase 4 (Homo sapiens) (UniProt P56524). In words: Inhibition of HDAC4 (unknown origin) assessed as residual activity at 5.08 x 10^-10M (reference value: 98.90%). To be noted: dose 5.08 10^-10M.
Sequence of Histone deacetylase 4 (Homo sapiens) (P56524 whole entry): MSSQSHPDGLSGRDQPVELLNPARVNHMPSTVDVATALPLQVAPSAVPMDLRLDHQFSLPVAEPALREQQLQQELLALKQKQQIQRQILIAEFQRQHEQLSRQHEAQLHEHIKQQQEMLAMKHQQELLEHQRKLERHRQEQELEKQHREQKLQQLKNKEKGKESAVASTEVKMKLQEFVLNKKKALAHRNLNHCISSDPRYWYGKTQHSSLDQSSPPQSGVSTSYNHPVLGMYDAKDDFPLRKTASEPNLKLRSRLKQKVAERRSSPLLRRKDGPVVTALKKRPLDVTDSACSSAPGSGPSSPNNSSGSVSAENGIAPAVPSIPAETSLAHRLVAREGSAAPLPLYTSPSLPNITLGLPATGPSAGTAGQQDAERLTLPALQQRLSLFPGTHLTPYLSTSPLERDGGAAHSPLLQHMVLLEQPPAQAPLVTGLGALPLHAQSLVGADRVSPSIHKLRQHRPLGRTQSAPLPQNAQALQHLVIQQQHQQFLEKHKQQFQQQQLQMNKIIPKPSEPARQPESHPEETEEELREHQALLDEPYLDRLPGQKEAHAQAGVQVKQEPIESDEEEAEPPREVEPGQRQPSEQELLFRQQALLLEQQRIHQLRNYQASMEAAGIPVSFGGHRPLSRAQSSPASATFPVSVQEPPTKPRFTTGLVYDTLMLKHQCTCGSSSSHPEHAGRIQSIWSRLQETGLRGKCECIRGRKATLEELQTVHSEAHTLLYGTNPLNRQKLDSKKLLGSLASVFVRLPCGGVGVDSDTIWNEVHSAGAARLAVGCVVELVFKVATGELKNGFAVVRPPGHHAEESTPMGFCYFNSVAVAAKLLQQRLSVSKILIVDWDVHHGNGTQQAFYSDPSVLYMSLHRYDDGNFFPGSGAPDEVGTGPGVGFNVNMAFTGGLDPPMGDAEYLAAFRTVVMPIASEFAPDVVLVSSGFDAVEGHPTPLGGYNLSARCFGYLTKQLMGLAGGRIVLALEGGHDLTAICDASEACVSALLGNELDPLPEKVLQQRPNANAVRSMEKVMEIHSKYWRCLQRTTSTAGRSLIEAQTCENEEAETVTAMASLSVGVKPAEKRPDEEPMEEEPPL
For assay [3], the system named is HL-60. In words: Induction of apoptosis in human HL-60 cells assessed as disintegration of mitochondrial nuclear condensation at 0.5 to 1 times IC50 by DAPI staining based microscopic analysis. In kind it is functional, cell-based.
The target of assay [4] is T1, Histone deacetylase 8 (Homo sapiens) (UniProt Q9BY41).
T1 sequence (whole entry): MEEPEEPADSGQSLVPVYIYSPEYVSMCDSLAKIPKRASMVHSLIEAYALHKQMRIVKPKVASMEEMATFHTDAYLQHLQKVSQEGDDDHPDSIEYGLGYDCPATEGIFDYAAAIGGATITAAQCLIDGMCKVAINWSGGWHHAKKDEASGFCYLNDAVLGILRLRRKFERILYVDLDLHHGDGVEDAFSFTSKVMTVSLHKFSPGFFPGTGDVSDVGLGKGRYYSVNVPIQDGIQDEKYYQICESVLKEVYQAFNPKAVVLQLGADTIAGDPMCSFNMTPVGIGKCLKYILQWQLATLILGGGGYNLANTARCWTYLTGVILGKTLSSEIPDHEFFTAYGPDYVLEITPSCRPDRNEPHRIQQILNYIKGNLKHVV
Kind of assay: Inhibition of HDAC8 (unknown origin) assessed as residual activity at 1.1 x 10^-6M (reference value: 100%). The settings on record: dose 1.1 10^-6M.

Assay [5] deals with HL-60. In words: Downregulation of HDAC3 protein expression in human HL-60 cells by Western blot analysis. To be noted: dose 0.2-5 µM. In kind it is functional, cell-based. On the technique in general: Immunoblotting shows a protein as a band on a membrane.
Assay [6] concerns the target T2, Polyamine deacetylase HDAC10 (Homo sapiens) (UniProt Q969S8).
T2 sequence (whole entry): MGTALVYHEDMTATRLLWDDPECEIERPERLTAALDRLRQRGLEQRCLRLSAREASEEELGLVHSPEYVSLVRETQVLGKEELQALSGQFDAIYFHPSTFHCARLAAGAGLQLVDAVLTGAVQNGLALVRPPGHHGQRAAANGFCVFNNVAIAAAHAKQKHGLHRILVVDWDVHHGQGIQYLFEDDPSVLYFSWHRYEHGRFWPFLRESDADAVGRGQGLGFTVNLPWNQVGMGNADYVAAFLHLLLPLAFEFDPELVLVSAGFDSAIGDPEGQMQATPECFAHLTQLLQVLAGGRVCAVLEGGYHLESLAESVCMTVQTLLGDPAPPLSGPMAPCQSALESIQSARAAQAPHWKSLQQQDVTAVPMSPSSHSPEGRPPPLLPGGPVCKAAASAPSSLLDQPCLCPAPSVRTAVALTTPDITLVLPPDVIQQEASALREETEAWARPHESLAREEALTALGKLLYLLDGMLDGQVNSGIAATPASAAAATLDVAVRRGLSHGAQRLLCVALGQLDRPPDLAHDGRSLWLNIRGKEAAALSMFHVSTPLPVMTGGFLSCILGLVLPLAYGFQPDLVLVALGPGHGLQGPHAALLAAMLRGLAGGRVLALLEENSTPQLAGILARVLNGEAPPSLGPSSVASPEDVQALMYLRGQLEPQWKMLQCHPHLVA
Kind of assay: Inhibition of HDAC10 (unknown origin) assessed as residual activity at 3.33 x 10^-6M (reference value: 101.54%). To be noted: dose 3.33 10^-6M.

Assay [7] deals with HL-60. In words: Downregulation of PARP-1 protein expression in human HL-60 cells by Western blot analysis. In kind it is functional, cell-based.
Assay [8] deals with Histone deacetylase 9 (Homo sapiens) (UniProt Q9UKV0). Kind of assay: Inhibition of HDAC9 (unknown origin) assessed as residual activity at 1.37 x 10^-8M (reference value: 97.55%). To be noted: dose 1.37 10^-8M.
Sequence of Histone deacetylase 9 (Homo sapiens) (Q9UKV0 whole entry, the tested form may be a part): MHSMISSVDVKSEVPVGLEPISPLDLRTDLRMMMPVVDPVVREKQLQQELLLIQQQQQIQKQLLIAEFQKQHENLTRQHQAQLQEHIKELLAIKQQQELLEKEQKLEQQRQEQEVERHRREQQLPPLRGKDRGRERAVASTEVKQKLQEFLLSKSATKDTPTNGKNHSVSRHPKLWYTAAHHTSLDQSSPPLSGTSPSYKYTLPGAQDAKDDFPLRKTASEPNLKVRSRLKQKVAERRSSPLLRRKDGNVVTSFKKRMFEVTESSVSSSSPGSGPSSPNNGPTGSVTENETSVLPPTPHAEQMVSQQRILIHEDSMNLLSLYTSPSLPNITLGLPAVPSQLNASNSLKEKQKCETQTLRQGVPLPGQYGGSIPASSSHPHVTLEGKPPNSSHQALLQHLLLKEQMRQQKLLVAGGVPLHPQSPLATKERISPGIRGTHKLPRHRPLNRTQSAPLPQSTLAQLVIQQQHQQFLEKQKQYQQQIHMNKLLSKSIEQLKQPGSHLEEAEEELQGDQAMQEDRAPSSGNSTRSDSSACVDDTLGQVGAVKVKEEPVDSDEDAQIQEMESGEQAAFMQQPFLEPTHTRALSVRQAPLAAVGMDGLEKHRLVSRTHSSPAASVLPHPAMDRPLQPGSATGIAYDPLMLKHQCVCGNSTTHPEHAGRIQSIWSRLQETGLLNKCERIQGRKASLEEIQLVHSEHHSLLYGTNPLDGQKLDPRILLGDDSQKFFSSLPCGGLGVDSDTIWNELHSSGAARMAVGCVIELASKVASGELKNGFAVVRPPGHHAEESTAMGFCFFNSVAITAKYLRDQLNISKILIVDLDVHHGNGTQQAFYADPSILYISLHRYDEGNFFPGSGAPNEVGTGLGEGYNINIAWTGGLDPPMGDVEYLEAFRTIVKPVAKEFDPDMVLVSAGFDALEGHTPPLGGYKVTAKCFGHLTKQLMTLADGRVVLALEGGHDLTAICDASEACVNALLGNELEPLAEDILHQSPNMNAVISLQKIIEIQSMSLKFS
Assay [9] addresses T3, Histone deacetylase 7 (Homo sapiens) (UniProt Q8WUI4).
T3 sequence (whole entry): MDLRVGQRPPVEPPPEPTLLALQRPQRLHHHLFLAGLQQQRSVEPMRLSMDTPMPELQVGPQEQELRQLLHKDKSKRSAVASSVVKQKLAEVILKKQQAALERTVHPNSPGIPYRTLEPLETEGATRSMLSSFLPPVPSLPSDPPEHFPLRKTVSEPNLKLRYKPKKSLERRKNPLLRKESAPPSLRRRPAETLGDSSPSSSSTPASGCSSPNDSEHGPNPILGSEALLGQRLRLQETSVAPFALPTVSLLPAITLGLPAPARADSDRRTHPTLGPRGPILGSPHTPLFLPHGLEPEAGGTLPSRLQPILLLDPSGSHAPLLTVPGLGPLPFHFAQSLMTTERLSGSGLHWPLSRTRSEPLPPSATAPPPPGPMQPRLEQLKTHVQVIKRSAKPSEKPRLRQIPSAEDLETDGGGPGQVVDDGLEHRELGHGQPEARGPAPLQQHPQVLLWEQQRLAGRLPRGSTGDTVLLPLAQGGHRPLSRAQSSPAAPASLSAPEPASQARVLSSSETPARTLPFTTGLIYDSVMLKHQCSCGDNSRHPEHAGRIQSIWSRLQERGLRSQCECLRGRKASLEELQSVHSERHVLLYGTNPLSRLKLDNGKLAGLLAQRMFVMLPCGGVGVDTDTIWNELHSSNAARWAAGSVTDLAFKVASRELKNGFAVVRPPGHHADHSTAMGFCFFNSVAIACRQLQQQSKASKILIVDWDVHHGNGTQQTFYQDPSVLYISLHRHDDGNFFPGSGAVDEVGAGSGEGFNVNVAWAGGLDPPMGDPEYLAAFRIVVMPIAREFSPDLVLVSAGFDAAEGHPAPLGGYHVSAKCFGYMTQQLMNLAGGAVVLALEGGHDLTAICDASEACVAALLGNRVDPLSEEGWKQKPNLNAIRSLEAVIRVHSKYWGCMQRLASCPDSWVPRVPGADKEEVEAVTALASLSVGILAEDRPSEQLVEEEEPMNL
In words: Inhibition of HDAC7 (unknown origin) assessed as residual activity at 1.23 x 10^-7M (reference value: 102.66%). The settings on record: dose 1.23 10^-7M.

Assay [10] deals with Histone deacetylase 4 (Homo sapiens) (UniProt P56524). In words: Inhibition of HDAC4 (unknown origin) assessed as residual activity at 1.1 x 10^-6M (reference value: 98.90%). To be noted: dose 1.1 10^-6M.
Assay [11] has as its target Histone deacetylase 2 (Homo sapiens, UniProt Q92769). Kind of assay: Inhibition of HDAC2 (unknown origin) assessed as residual activity at 1.23 x 10^-7M (reference value: 99.81%). To be noted: dose 1.23 10^-7M.
Assay [12] deals with T3, Histone deacetylase 7 (Homo sapiens). Kind of assay: Inhibition of HDAC7 (unknown origin) assessed as residual activity at 4.57 x 10^-9M (reference value: 102.66%). To be noted: dose 4.57 10^-9M.
In assay [13] the target is Histone deacetylase 9 (Homo sapiens) (UniProt Q9UKV0). In words: Inhibition of HDAC9 (unknown origin) assessed as residual activity at 5.08 x 10^-10M (reference value: 97.55%). The settings on record: dose 5.08 10^-10M.
In assay [14] the target is Histone deacetylase 3 (Homo sapiens, UniProt O15379). In words: Inhibition of HDAC3 (unknown origin) using p53 residues 379 to 382 [RHKK(Ac)] as fluorogenic substrate.
Sequence of Histone deacetylase 3 (O15379 whole entry, the tested form may be a part): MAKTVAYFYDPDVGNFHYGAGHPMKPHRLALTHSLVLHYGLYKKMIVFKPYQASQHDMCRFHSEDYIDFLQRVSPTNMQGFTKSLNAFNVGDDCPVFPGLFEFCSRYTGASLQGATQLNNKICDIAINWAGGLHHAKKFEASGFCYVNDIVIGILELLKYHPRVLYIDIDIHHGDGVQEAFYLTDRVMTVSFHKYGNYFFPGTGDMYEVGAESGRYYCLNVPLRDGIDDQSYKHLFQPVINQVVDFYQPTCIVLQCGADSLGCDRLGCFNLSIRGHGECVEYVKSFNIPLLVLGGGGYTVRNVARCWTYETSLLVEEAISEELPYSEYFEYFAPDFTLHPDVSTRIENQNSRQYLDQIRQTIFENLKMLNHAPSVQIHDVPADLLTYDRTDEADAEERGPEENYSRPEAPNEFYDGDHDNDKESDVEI

Sequence of Histone deacetylase 2 (Q92769 whole entry): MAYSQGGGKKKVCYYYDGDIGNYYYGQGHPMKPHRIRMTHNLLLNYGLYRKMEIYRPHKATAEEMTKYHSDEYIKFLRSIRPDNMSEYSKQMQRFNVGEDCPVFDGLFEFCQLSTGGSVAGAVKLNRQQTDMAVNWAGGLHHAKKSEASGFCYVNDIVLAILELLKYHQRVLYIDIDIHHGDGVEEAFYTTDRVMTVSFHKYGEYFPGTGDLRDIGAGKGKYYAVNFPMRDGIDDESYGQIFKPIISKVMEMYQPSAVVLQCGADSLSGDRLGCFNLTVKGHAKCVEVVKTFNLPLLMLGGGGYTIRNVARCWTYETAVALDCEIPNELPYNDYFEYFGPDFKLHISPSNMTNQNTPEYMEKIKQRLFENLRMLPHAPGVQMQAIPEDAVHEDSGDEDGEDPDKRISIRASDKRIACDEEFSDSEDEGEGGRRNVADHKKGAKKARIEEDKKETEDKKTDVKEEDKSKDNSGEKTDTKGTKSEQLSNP

For the compound `NC(=O)c1cccc2[nH]c(-c3ccc(NCc4ccc(C(=O)Nc5ccccc5N)cc4)cc3)nc12`, the Activity in [1] is 82.9%; in assay [2], 96.7%; in [4], 104%; in assay [5], “Dose-Dependent Effect”; in assay [6], 101%; in [8], 84.9%. The Activity in [9] was 89.1%; in [10] it was 76.5%; in assay [11] it was 56.5%; in [12], 111%; in assay [13], 93.7%. In addition, the result in assay [3] was inactive. In addition, in assay [7], the result was Active. The compound also had a pIC50 in assay [14] of 6.41.

Values taken from ChEMBL document CHEMBL5550160, “Leveraging a rationally designed veliparib-based anilide eliciting anti-leukemic effects for the design of pH-responsive polymer nanoformulation” (Eur J Med Chem, 2024).
